Format in all cases: biochemical
Experiment [1] addresses T1, CDK2/CyclinE1 (Homo sapiens, UniProt P24941).
T1 construct: purchased Carna 04-165
The experiment is described as follows: CDK2/CyclinE1 kinase inhibitory activity (Caliper mobility shift). The following applies: enzyme 3 nM, ATP 77 μM, 28° C. 30 min; read-out: CDK2/Cyclin E1 IC50. The method, then:
CDK2/CyclinE1 kinase inhibitory activity (IC50): 5 μl of various dilutions of test compounds in 1×kinase buffer (50 mM HEPES pH 7.5, 10 mM MgCl2, 2 mM DTT and […] Brij-35) were mixed with 10 μL of CDK2/CyclinE1 (Carna, 04-165 #, final concentration 3 nM in 1×Kinase buffer) in 384 plates and incubated at room temperature for 10 min. To initiate each reaction, 10 μL of peptide solution containing fluorescently-labeled-peptide 18(5-FAM-QSPKKG-CONH2) (GL, 114202 #, final concentration 3000 nM) and ATP (final concentration 77 μM) in 1×Kinase buffer was added to each of the wells containing test compound and CDK2/CyclinE1 mixture. The reaction was then allowed to proceed at 28° C. for 30 min and terminated by the addition of 25 μL stop buffer (100 mM HEPES pH 7.5, 50 mM EDTA, 0.2% Coating Reagent #3 (Perkin Elmer, 760050 #) and 0.015% Brij-35).
(§1) Following the kinase reaction, Caliper EZ reader II (Downstream voltages: −500V, Upstream voltages: −2250V, Base pressure −0.5 PSI, Screen pressure −1.2 PSI) was used to separate the phosphorylated (product) and the unphosphorylated (substrate) fluorescently-labeled peptide 18 based on their different mobility. Both substrate and product were measured and the ratio of these values were used to generate % conversion by Caliper EZ reader II. These conversion values were then transformed into % inhibition of kinase activity using the formula: % Inhibition=[(MA−X)/(MA−MI)]×100% where MA=conversion value of DMSO only controls, MI=conversion value of no enzyme controls and X=conversion value at any given compound dose. IC50 values were then calculated by plotting dose-response curves and then using the XLfit application in Excel software.

Experiment [2] addresses T2, CDK4/CyclinD1 (Homo sapiens, UniProt P11802).
T2 construct: purchased ProQinase 0142-0143-1
Description: CDK4/CyclinD1 kinase inhibitory activity (Caliper mobility shift). To be noted: enzyme 20 nM, ATP 672 uM, 28° C. 30 min; read-out: CDK4/Cyclin D1 IC50. In a few lines: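 Recombinant CDK4/Cyclin D1 (20 nM final) preincubated 10 min at room temperature with compound in HEPES pH 7.5 buffer with MgCl2, DTT and Triton X-100. Reaction started with 3000 nM FAM-labelled peptide and 672 uM ATP, run 30 min at 28° C, stopped with EDTA. Mobility-shift % conversion gave % inhibition, and IC50 came from dose-response fits.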

The target of experiment [3] is T3, CDK1/CyclinB (Homo sapiens, UniProt P06493).
T3 construct: purchased Millipore 14-450M
The experiment is described as follows: CDK1/CyclinB kinase inhibitory activity (Caliper mobility shift). To be noted: enzyme 3 nM, ATP 20 μM, 28° C. 30 min; read-out: CDK1/Cyclin B1 IC50. As to the method:
CDK1/CyclinB kinase inhibitory activity (IC50): 5 μl of various dilutions of test compound in 1× kinase buffer (50 mM HEPES pH 7.5, 10 mM MgCl2, 2 mM DTT and 0.01% Brij-35) was mixed with 10 μL of CDK1/CyclinB (Millipore, 14-450M #, final concentration 3 nM in 1× Kinase buffer) in 384 plates and incubated at room temperature for 10 min. To initiate each reaction, 10 μL of peptide solution containing fluorescently-labeled-peptide 18(5-FAM-QSPKKG-CONH2) (GL, 114202 #, final concentration 3000 nM) and ATP (final concentration 20 μM) in 1× Kinase buffer was added to each of the wells containing test compound and CDK1/CyclinB mixture. The reaction is then allowed to proceed at 28° C. for 30 min and terminated by the addition of 25 μL stop buffer (100 mM HEPES pH 7.5, 50 mM EDTA, 0.2% Coating Reagent #3 (Perkin Elmer, 760050 #) and 0.015% Brij-35).
as §1

This is an account of results in patent publication US20260242395A1, “AMINOHETEROARYL KINASE INHIBITORS” (ALLORION THERAPEUTICS INC, priority 2022, published 2026).

Some results are limits rather than exact numbers.

T2 sequence (P11802 whole entry): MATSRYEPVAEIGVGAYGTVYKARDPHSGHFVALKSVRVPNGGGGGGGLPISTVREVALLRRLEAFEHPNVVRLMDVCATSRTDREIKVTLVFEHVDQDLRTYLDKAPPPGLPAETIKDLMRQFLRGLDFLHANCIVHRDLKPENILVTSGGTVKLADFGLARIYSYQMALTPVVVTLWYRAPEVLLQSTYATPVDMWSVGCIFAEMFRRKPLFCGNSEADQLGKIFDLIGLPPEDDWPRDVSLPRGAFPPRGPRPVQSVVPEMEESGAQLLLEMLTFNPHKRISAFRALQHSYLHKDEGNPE
T2 sequence (P24385 whole entry partner): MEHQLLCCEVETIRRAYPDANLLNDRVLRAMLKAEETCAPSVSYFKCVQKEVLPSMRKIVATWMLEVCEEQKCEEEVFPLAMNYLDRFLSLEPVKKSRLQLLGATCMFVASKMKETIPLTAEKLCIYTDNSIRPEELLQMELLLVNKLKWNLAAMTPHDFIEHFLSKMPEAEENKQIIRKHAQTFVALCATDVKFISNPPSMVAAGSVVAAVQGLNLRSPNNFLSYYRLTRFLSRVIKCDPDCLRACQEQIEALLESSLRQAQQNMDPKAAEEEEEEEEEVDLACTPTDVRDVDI
T3 sequence (P06493 whole entry): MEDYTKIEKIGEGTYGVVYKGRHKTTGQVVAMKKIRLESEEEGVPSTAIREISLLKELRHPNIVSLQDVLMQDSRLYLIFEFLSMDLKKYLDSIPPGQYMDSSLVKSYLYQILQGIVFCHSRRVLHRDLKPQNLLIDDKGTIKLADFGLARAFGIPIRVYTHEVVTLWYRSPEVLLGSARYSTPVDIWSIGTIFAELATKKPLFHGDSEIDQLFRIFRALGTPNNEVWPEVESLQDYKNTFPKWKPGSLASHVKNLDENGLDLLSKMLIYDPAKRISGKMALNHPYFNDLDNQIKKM
T3 sequence (P14635 whole entry partner): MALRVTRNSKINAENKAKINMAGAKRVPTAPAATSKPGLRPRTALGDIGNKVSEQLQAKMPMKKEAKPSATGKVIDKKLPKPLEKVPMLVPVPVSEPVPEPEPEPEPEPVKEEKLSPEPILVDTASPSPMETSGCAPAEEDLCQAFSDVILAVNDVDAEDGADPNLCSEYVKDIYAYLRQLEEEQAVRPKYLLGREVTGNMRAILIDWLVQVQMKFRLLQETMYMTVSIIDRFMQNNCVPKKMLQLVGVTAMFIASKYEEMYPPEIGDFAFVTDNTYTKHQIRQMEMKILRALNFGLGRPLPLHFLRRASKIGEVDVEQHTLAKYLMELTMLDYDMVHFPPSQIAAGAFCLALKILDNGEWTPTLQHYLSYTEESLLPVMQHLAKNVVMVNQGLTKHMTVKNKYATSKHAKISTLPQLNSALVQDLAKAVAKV

`Cc1c(C(C)(C)O)cnc2c(F)cc(-c3nc(N[C@@H]4CCOC[C@H]4O)ncc3F)cc12` [Example 23, (3S,4R)-4-((5-fluoro-4-(8-fluoro-3-(2-hydroxypropan-2-yl)-4-methylquinolin-6-yl)pyrimidin-2-yl)amino)tetrahydro-2H-pyran-3-ol]: the IC50 is 10 to 100 nM in experiment [1], < 10 nM in experiment [2] and 100 to 1000 nM in experiment [3].

Regarding `[2H]c1nc2c(F)cc(-c3nc(N[C@@H]4CCOC[C@H]4O)ncc3C)cc2c2c1CC(C)(C)NC2` [Example 102], the IC50 was ≥ 1000 nM in experiment [1], < 10 nM in experiment [2] and ≥ 1000 nM in experiment [3].

With `CC(C)(N)c1cnc2ccc(-c3nc(N[C@@H]4CCOC[C@H]4O)ncc3Cl)cc2c1` [Example 26], the IC50 in experiment [1] lay in the range of 100 to 1000 nM; in experiment [2] it was 10 to 100 nM; in experiment [3], 100 to 1000 nM.

Regarding `Cc1nc2c(F)cc(-c3nc(N[C@@H]4CCOC[C@H]4O)ncc3Cl)cc2cc1C(C)NC1CC1` (single isomer, unassigned) [Example 73b], the IC50 in experiment [1] is 100 to 1000 nM; in experiment [2] it was < 10 nM; in experiment [3], 100 to 1000 nM.

`[2H]c1nc2c(F)cc(-c3nc(N[C@@H]4CCOC[C@H]4O)ncc3F)cc2c(C)c1C(C)(C)O` [Example 94]: the results for the IC50 in experiment [1], in experiment [2] and in experiment [3] were 100 to 1000 nM, < 10 nM and 100 to 1000 nM, respectively.

Turning to `CC1(C)Cc2cnc3c(F)cc(-c4ccnc(N[C@@H]5CCOC[C@H]5O)n4)cc3c2CN1` [Example 107], the values for the IC50 in experiment [1], in experiment [2] and in experiment [3] were 100 to 1000 nM, < 10 nM and 100 to 1000 nM, respectively.

As to `Cc1nc2c(F)cc(-c3nc(N[C@@H]4CCOC[C@H]4O)ncc3Cl)cc2c(C)c1[C@@H](C)O` (single isomer, unassigned) [Example 15a], the IC50 is 100 to 1000 nM in experiment [1], < 10 nM in experiment [2] and 100 to 1000 nM in experiment [3].

Regarding `O[C@@H]1COCC[C@H]1Nc1ncc(Cl)c(-c2cc(F)c3ncc4c(c3c2)C2CCC(C4)N2)n1` (single isomer, unassigned) [Example 20b], the IC50 in experiment [1] was 100 to 1000 nM; in experiment [2], < 10 nM; in experiment [3], 100 to 1000 nM.

Consider `CC1(C)NCc2c(cnc3c(F)cc(-c4nc(N[C@@H]5CCOC[C@H]5O)ncc4F)cc23)C1O` (single isomer, unassigned) [Example 106b], for which the IC50 in experiment [1] is 100 to 1000 nM; in experiment [2], < 10 nM; in experiment [3], 100 to 1000 nM.

On to `Cc1nc2c(F)cc(-c3nc(N[C@@H]4CCOC[C@H]4O)ncc3Cl)cc2c(Cl)c1C(C)O` (single isomer, unassigned) [Example 35a], for which the values for the IC50 in experiment [1], in experiment [2] and in experiment [3] were 100 to 1000 nM, < 10 nM and 100 to 1000 nM, respectively.

On to `Cc1nc2c(F)cc(-c3nc(N[C@@H]4CCOC[C@H]4O)ncc3F)cc2c(C)c1C(C)O` (single isomer, unassigned) [Example 81b], for which the IC50 was 100 to 1000 nM in experiment [1], < 10 nM in experiment [2] and 100 to 1000 nM in experiment [3].

For the compound `CNC(C)(C)c1cnc2c(F)cc(-c3nc(N[C@@H]4CCOC[C@H]4O)ncc3Cl)cc2c1` [Example 36], the figures for the IC50 in experiment [1], in experiment [2] and in experiment [3] were 100 to 1000 nM, 10 to 100 nM and ≥ 1000 nM, respectively.

With `CC(C)(O)c1cnc2c(F)cc(-c3nc(N[C@@H]4CCOC[C@H]4O)ncc3Cl)cc2c1Cl` [Example 17, (3S,4R)-4-((5-chloro-4-(4-chloro-8-fluoro-3-(2-hydroxypropan-2-yl)quinolin-6-yl)pyrimidin-2-yl)amino)tetrahydro-2H-pyran-3-ol], the IC50 was 100 to 1000 nM in experiment [1], < 10 nM in experiment [2] and 100 to 1000 nM in experiment [3].

Regarding `[2H]C([2H])([2H])C(O)(c1cc2cc(-c3nc(N[C@@H]4CCOC[C@H]4O)ncc3Cl)cc(F)c2nc1C)C([2H])([2H])[2H]` [Example 60, (3S,4R)-4-((5-chloro-4-(8-fluoro-3-(2-hydroxypropan-2-yl-1,1,1,3,3,3-d6)-2-methylquinolin-6-yl)pyrimidin-2-yl)amino)tetrahydro-2H-pyran-3-ol], the figures for the IC50 in experiment [1], in experiment [2] and in experiment [3] were ≥ 1000 nM, < 10 nM and ≥ 1000 nM, respectively.

Take `[2H]c1nc(N[C@@H]2CCOC[C@H]2O)nc(-c2cc(F)c3nc(C)c(C(C)(C)O)cc3c2)c1F` [Example 83]: the IC50 in experiment [1] is 100 to 1000 nM; in experiment [2], < 10 nM; in experiment [3], 100 to 1000 nM.

For the compound `CNC(C)c1cnc2c(F)cc(-c3nc(N[C@@H]4CCOC[C@H]4O)ncc3Cl)cc2c1` (single isomer, unassigned) [Example 32a], the values for the IC50 in experiment [1], in experiment [2] and in experiment [3] were 10 to 100 nM, < 10 nM and 100 to 1000 nM, respectively.

In the case of `CC(C)(O)c1cnc2c(F)cc(-c3nc(N[C@@H]4CCOC[C@H]4O)ncc3C#N)cc2c1Cl` [Example 41], the IC50 in experiment [1] was 100 to 1000 nM; in experiment [2] it was < 10 nM; in experiment [3] it was ≥ 1000 nM.
